According to patent publication US11098090B2, “Mycobacteria tuberculosis chaperonin 60.1 peptides and uses thereof” (Revolo Biotherapeutics Limited, priority 2017, dated 2021):
Entries after “also recorded” stand apart in the source; their conditions may differ. Where no end group is shown, it is not given here.

Key:
[1] = system: LPS induced lung neutrophil influx; test: LPS mouse model of lung inflammation (BAL neutrophil count); assay type: in vivo; conditions: for efficacy against LPS induced lung neutrophil influx: 50 pg/mouse i.v.
[2] = Plasma stability at 37° C., mouse plasma; assay type: in vitro ADME
Method: (§1) Plasma Stability in Mouse, Rat and Human Plasma at 37° C.
(§2) Plasma: mouse (C57 Black 6 Male), rat (Sprague Dawley) and human containing heparin as an anti-coagulant.
(§3) Plasma samples in duplicate were incubated with peptide at 3 μM in a 600 μl volume at 37° C. with shaking. 50 μl aliquots were withdrawn after 2, 5, 30, 60 and 120 mins and quenched into 150 μl of ice-cold methanol containing the internal standard (tolbutamide). Samples were stored at −20° C. for 2 hours to allow protein precipitation. Samples were then centrifuged at 2500×g and the resulting supernatants transferred to a 96 well plate for LC-MS/MS analysis. Thalf was calculated in all matrices for each peptide.

[3] = Plasma stability at 37° C., rat plasma; assay type: in vitro ADME
Method: as §1, §2, §3

[4] = Plasma stability at 37° C., human plasma; assay type: in vitro ADME
Method: as §1, §2, §3

[5] = Plasma stability, overall statements for mouse, rat and human plasma; assay type: in vitro ADME; conditions: for plasma stability / half-life (Th) compared with parent peptide SEQ ID NO: 17: rat and human plasma
Method: as §1, §2, §3

[6] = system: recruitment of eosinophils; conditions: animal model of allergic airway inflammation; from WO2009106819; cited from earlier work
[7] = Table 7, same conditions as Example 3, read-out: Plasma half life Mouse
[8] = Table 7, same conditions as Example 3, read-out: Plasma half life Rat
[9] = Table 7, same conditions as Example 3, read-out: Plasma half life Man
[10] = Table 4, read-out: Plasma half life Mouse
[11] = Table 4, read-out: Plasma half life Rat
[12] = Table 4, read-out: Plasma half life Man

H-SELPAGHGLNVNTLSYGDLAAD [SEQ ID NO: 4]
in vivo efficacy in the mouse LPS lung inflammation model ([1]; 0.5, 5 and 500 pg/dose (FIG. 7)): maintained in vivo efficacy | half-life ([2]; Table 5, read-out: Plasma half-life Mouse): > 6 h | half-life ([3]; Table 5, read-out: Plasma half-life Rat): > 6 h | half-life ([4]; Table 5, read-out: Plasma half-life Man): > 6 h | plasma half-life compared with fragment 3 (SEQ ID NO: 5) ([5]; rat and human plasma (Table 5 vs Table 4)): superior half-life

CC(C)C[C@@H]1NC(=O)CNC(=O)[C@H](Cc2c[nH]cn2)NC(=O)[C@H](CC(=O)O)NC(=O)CNC(=O)[C@H](Cc2ccc(O)cc2)NC(=O)[C@H](CO)NC(=O)[C@H](CC(C)C)NC(=O)[C@H]([C@@H](C)O)NC(=O)[C@H](CC(N)=O)NC(=O)[C@H](C(C)C)NC(=O)[C@H](CC(N)=O)NC1=O [SEQ ID NO: 25, cyclic-HGLNVNTLSYGD-]
half-life [2, 7]: 0.167 h | half-life [3, 8]: 0.35 h | half-life [4, 9]: 0.75 h | plasma stability / half-life (Th) compared with parent peptide SEQ ID NO: 17 [5]: did not improve plasma stability

CC(C)C[C@H](NC(=O)CNC(=O)[C@H](N)Cc1c[nH]cn1)C(=O)N[C@@H](CC(N)=O)C(=O)N[C@H](C(=O)N[C@@H](CC(N)=O)C(=O)N[C@H](C(=O)N[C@@H](CC(C)C)C(=O)N[C@@H](CO)C(=O)N[C@@H](Cc1ccc(O)cc1)C(=O)NCC(=O)N[C@H](CC(=O)O)C(N)=O)[C@@H](C)O)C(C)C [SEQ ID NO: 14, hGLNVNTLSYGd-NH2]
half-life [2, 7]: 0.833 h | half-life [3, 8]: 2.55 h | half-life [4, 9]: 2.58 h

CC(=O)N[C@H](Cc1c[nH]cn1)C(=O)NCC(=O)N[C@H](CC(C)C)C(=O)N[C@H](CC(N)=O)C(=O)N[C@@H](C(=O)N[C@H](CC(N)=O)C(=O)N[C@@H](C(=O)N[C@H](CC(C)C)C(=O)N[C@H](CO)C(=O)N[C@H](Cc1ccc(O)cc1)C(=O)NCC(=O)N[C@H](CC(=O)O)C(N)=O)[C@H](C)O)C(C)C [SEQ ID NO: 20, Ac-hGlnvntlsyGd-NH2]
half-life [2, 7]: > 6 h | half-life [3, 8]: 3.03 h | half-life [4, 9]: > 6 h | plasma stability / half-life (Th) compared with parent peptide SEQ ID NO: 17 [5]: enhanced plasma stability

H-SELPAGHGLNVNTLS [SEQ ID NO: 5, SELPAGHGLNVNTLS]
half-life [2, 10]: 0.2 h | half-life [3, 11]: 1.32 h | half-life [4, 12]: 1.85 h

CC(C)C[C@H](NC(=O)CNC(=O)[C@H](N)Cc1c[nH]cn1)C(=O)N[C@@H](CC(N)=O)C(=O)N[C@H](C(=O)N[C@@H](CC(N)=O)C(=O)N[C@H](C(=O)N[C@@H](CC(C)C)C(=O)N[C@@H](CO)C(=O)N[C@@H](Cc1ccc(O)cc1)C(=O)NCC(=O)N[C@@H](CC(=O)O)C(N)=O)[C@@H](C)O)C(C)C [SEQ ID NO: 16, hGLNVNTLSYGD-NH2]
half-life [2, 7]: 0.583 h | half-life [3, 8]: 3.33 h | half-life [4, 9]: 1.85 h

CC(=O)N[C@H](CC(=O)O)C(=O)NCC(=O)N[C@H](Cc1ccc(O)cc1)C(=O)N[C@H](CO)C(=O)N[C@H](CC(C)C)C(=O)N[C@@H](C(=O)N[C@H](CC(N)=O)C(=O)N[C@@H](C(=O)N[C@H](CC(N)=O)C(=O)N[C@H](CC(C)C)C(=O)NCC(=O)N[C@H](Cc1c[nH]cn1)C(N)=O)C(C)C)[C@H](C)O [SEQ ID NO: 19, Ac-dGysltnvnlGh-NH2]
half-life [2, 7]: > 6 h | half-life [3, 8]: > 6 h | half-life [4, 9]: > 6 h | plasma stability / half-life (Th) compared with parent peptide SEQ ID NO: 17 [5]: enhanced plasma stability

H-DGSVVVNKVSEL-NH2 [SEQ ID NO: 3, DGSVVVNKVSEL-NH2]
efficacy against LPS induced lung neutrophil influx ([1]; dosed up to 60 mins prior to LPS challenge (FIG. 2)): efficacious | efficacy against LPS induced lung neutrophil influx ([1]; dosed up to 120 mins post LPS challenge (FIG. 3)): efficacious | efficacy in the LPS mouse model ([1]; dosed intravenously): effective

CC(C)C[C@H](NC(=O)CNC(=O)[C@@H](N)Cc1c[nH]cn1)C(=O)N[C@@H](CC(N)=O)C(=O)N[C@H](C(=O)N[C@@H](CC(N)=O)C(=O)N[C@H](C(=O)N[C@@H](CC(C)C)C(=O)N[C@@H](CO)C(=O)N[C@@H](Cc1ccc(O)cc1)C(=O)NCC(=O)N[C@@H](CC(=O)O)C(N)=O)[C@@H](C)O)C(C)C [SEQ ID NO: 17, HGLNVNTLSYGD-NH2]
effect on LPS induced lung neutrophil influx (number of neutrophils) ([1]; different doses (0.5, 5 or 50 pg/mouse)): reduction in the number of neutrophils | half-life ([2]; Table 3, 37° C., peptide 3 μM, read-out: Plasma Half Life (Th) Mouse): 0.333 h | half-life ([3]; Table 3, 37° C., peptide 3 μM, read-out: Plasma Half Life (Th) Rat): 0.717 h | half-life ([4]; Table 3, 37° C., peptide 3 μM, read-out: Plasma Half Life (Th) Man): 1.2 h

H-GLNVNTLSYGDLAAD [SEQ ID NO: 23, GLNVNTLSYGDLAAD, reference compound]
half-life [2, 10]: 1.03 h | half-life [3, 11]: > 5.13 h | half-life [4, 12]: > 5.62 h

CC(C)C[C@H](NC(=O)CNC(=O)[C@@H](N)Cc1c[nH]cn1)C(=O)N[C@@H](CC(N)=O)C(=O)N[C@H](C(=O)N[C@@H](CC(N)=O)C(=O)N[C@H](C(=O)N[C@@H](CC(C)C)C(=O)N[C@@H](CO)C(=O)N[C@@H](Cc1ccc(O)cc1)C(=O)NCC(=O)N[C@H](CC(=O)O)C(N)=O)[C@@H](C)O)C(C)C [SEQ ID NO: 15, HGLNVNTLSYGd-NH2]
half-life [2, 7]: 0.65 h | half-life [3, 8]: 3.03 h | half-life [4, 9]: 1.4 h

H-DGSVVVNKVSELPAGHGLNVNTLSYGDLAAD [SEQ ID NO: 1, reference compound]
inhibition of LPS induced lung neutrophil influx ([1]; dosed intravenously immediately prior to LPS challenge): significant inhibition; also recorded: only demonstrates efficacy when dosed immediately prior to LPS challenge | activity against LPS induced lung neutrophil influx ([1]; i.v., given at earlier (FIG. 1) or later (FIG. 4) time points than LPS challenge): looses its activity | recruitment of eosinophils [6]: significantly reduce the recruitment of eosinophils
